Assay [1] concerns PCP-disrupted PPI response in rats. Kind of assay: PCP-disrupted PPI response in rats (schizophrenia model), intravenous administration. The note with it: PCP 1.5 mg/kg s.c.; for % PPI (Mean ± SEM): 0.5 mg/kg intravenous, 15 min before PPI (immediately before PCP), pre-pulse 60 dB, startle 110 dB; for effect on PCP-disrupted PPI response: intravenous administration 15 min before PPI. The assay is classed as in vivo, Male Wistar rats. On the procedure: Male Wistar rats (n=135) (200-300 g) were used. Animals are housed at a standard temperature (22±1° C.) and in a light-controlled environment (lights on from 7 am to 8 pm) with ad libitum access to food and water. Animals are treated with Phencyclidine (PCP) at 1.5 mg/kg, s.c., and tested in Pre-Pulse Inhibition (PPI) 15 min later. Intravenous administration of Compound A ((−)-7-[(1R,2R)-2-(4,4-difluoro-3-oxooctyl)-5-oxocyclopentyl]heptanoic acid), Compound B ((+)-isopropyl (Z)-7-[(1R,2R,3R,5S)-3,5-dihydroxy-2-(3-oxodecyl)cyclopentyl]hept-5-enoate) and corresponding vehicle was done 15 min before PPI, which means each compound or vehicle was administered immediately before PCP injection.
(§1) PPI tests were conducted in standard startle chambers (SR-LAB Startle Response system, San Diego Instruments, USA). Before the PPI testing, the animals were habituated to handling. On the day of PPI testing, the animals were placed in the chamber and allowed to habituate for a period of 300 s. After habituation period, the rats received 12 startle trials, 12 no-stimulus trials, and 12 trials of the pre-pulse/startle trials (3×12 trials). The startle trials consists of single 110 dB white noise burst lasting 20 ms. The PPI trials consist of a pre-pulse (20 ms burst of white noise with intensities of 60 dB) followed 100 ms later by a startle stimulus (110 dB, 20 ms white noise). During the no-stimulus trial, no startle noise is presented. The resulting movement of the rat in the startle chamber is measured during 100 ms after startle stimulus onset. Basal startle amplitude is determined as the mean amplitude of the 12 startle trials. % PPI is calculated according to the formula 100−100%×(PP/P110), in which PP is the mean of the 12 pre-pulse inhibition trials (i.e., for each individual pre-pulse intensity), and P110 is the basal startle amplitude. The animals are treated with PCP s.c. and then tested in PPI 15 min later.

Assay [2] shares this test system. Kind of assay: PCP-disrupted PPI response in rats, oral administration. As to conditions: PCP 1.5 mg/kg s.c.; for % PPI (Mean ± SEM): 0.3 mg/kg oral, 45 min before PPI (30 min before PCP), pre-pulse 63 dB, startle 110 dB; for effect on PCP-disrupted PPI response: oral administration 45 min before PPI. It is filed as in vivo, Male Wistar rats. On the procedure:
Male Wistar rats (n=135) (200-300 g) were used. Animals are housed at a standard temperature (22±1° C.) and in a light-controlled environment (lights on from 7 am to 8 pm) with ad libitum access to food and water. Animals are treated with Phencyclidine (PCP) at 1.5 mg/kg, s.c., and tested in Pre-Pulse Inhibition (PPI) 15 min later. Oral administration of Compound B ((+)-isopropyl (Z)-7-[(1R,2R,3R,5S)-3,5-dihydroxy-2-(3-oxodecyl)cyclopentyl]hept-5-enoate) and Compound C ((E)-7-[(1R,2R)-2-(4,4-difluoro-3-oxooctyl)-5-oxocyclopentyl]hept-2-enoic acid) and corresponding vehicle was done 45 min before PPI, which means each compound or vehicle was administered 30 min before PCP injection.
as §1, with “63” for “60”

The results in this text go back to US8592483B2, “Method for treating schizophrenia” (Sucampo AG, priority 2011, dated 2013).

In the case of `CCCCC(F)(F)C(=O)CC[C@H]1CCC(=O)[C@@H]1CCCCCCC(=O)O` [Compound A, (−)-7-[(1R,2R)-2-(4,4-difluoro-3-oxooctyl)-5-oxocyclopentyl]heptanoic acid], in assay [1], the “% PPI (Mean ± SEM)” value is listed as 34.2 ± 3.9% and the “effect on PCP-disrupted PPI response” value is on record as “improved the PCP-disrupted PPI response”.
Take `CCCCCCCC(=O)CC[C@@H]1[C@@H](C/C=C\CCCC(=O)OC(C)C)[C@@H](O)C[C@H]1O` [Compound B, (+)-isopropyl (Z)-7-[(1R,2R,3R,5S)-3,5-dihydroxy-2-(3-oxodecyl)cyclopentyl]hept-5-enoate]: in assay [1], the “% PPI (Mean ± SEM)” value was 40.5 ± 4.2% and the “effect on PCP-disrupted PPI response” value is recorded as “improved the PCP-disrupted PPI response”. For the same compound, in assay [2], the “% PPI (Mean ± SEM)” value came out at 24.0 ± 5.3% and the “effect on PCP-disrupted PPI response” value is “improved the PCP-disrupted PPI response”.
For the compound `CCCCC(F)(F)C(=O)CC[C@H]1CCC(=O)[C@@H]1CCCC/C=C/C(=O)O` [Compound C, (E)-7-[(1R,2R)-2-(4,4-difluoro-3-oxooctyl)-5-oxocyclopentyl]hept-2-enoic acid], in assay [2], the “% PPI (Mean ± SEM)” value is 24.7 ± 5.0% and the “effect on PCP-disrupted PPI response” value is on record as “improved the PCP-disrupted PPI response”.
